Source: patent US11524021B2, “Use of ginsenoside M1 for manufacturing medicament for treating oral cancer” (priority 2018, dated 2022)

Experiments:
Type in all cases: cell-based
[1] = system: human oral cancer cells OECM-1; assay: Apoptotic DNA breaks, TUNEL assay by flow cytometry; conditions: 50 μM, 24 h
Procedure: (§1) Human oral cancer cell line OECM-1 cells were incubated for 24 h with ginsenoside M1 (10˜20 μg/ml), 50 μM cistaplatin (CDDP) or vehicle (0.1% DMSO). (FIG. 3A) The apoptotic DNA breaks was assayed by terminal deoxynucleotidyl transferase dUTP nick end labeling (TUNEL) assay using flow cytometry. (FIG. 3B) The cell cycle distribution was determined by PI staining using flow cytometry. (FIG. 3C) The apoptosis level was measured by PI/Annexin V double staining assay using flow cytometry. (FIG. 3D) The activation levels of caspase-9 and caspase-3 were measured by detecting the degradation of pro-caspase-9 and pro-caspase-3 using Western blotting. […] (One-way ANOVA with Dunnett's multiple comparisons test).
(§2) To gain further insight into the mode of action of ginsenoside M1, three assays targeting hallmarks of apoptosis, namely (1) the apoptotic DNA breaks assayed by terminal deoxynucleotidyl transferase dUTP nick end labeling (TUNEL) assay, (2) the cell cycle assayed by flow cytometry after propidium iodide (PI)-staining nuclei, (3) the PI/Annexin V double staining assay, and (4) caspase activation were performed. Plate 1×10^6 human oral cancer cells OECM-1 per 6-cm dish in 2 ml of culture medium and were grown overnight at 37° C. in a 5% CO2 incubator. The cells were incubated for 24 h with ginsenoside M1 (10˜20 μg/ml), 50 μM cistaplatin (CDDP) or vehicle. Each group contains a final DMSO concentration of 0.1%. Thereafter, three assays were performed. […] The cells in sub-G1 phase increased after treatment with ginsenoside M1 and CDDP. (FIG. 3B). […] The data were expressed as mean±SD; n=3. ** and *** indicate a significant difference at the level of p<0.01 and p<0.001, respectively, compared to vehicle-control cells. (One-way ANOVA with Dunnett's multiple comparisons test).

[2] = system: human oral cancer cells OECM-1; assay: Cell cycle distribution, PI staining by flow cytometry; conditions: 50 μM, 24 h
Procedure: as §1, §2

[3] = system: human oral cancer cells OECM-1; assay: PI/Annexin V double staining assay by flow cytometry; conditions: 50 μM, 24 h
Procedure: as §1, §2

[4] = system: human oral cancer cells SAS; assay: Viability of human oral cancer SAS cells, Trypan blue exclusion; conditions: 5˜20 μg/ml, 24 h
Procedure: (§3) Human oral cancer cell line SAS cells (FIG. 1A) or OECM-1 cells (FIG. 1B) were incubated for 24 h with ginsenoside M1 (5˜20 μg/ml), ginsenoside Rh2 (5˜20 μg/ml) or vehicle (0.1% DMSO). The live cell numbers were counted by Trypan blue exclusion method. The data were expressed as mean±SD; n=3. *, ** and *** indicate a significant difference at the level of p<0.05, p<0.01 and p<0.001, respectively, compared to vehicle-control cells. (One-way ANOVA with Dunnett's multiple comparisons test).
(§4) Plate 5×10^5 human oral cancer cells SAS per 6-cm dish in 2 ml of culture medium and were grown overnight at 37° C. in a 5% CO2 incubator. The cells were incubated for 24 h with ginsenoside M1 (5˜20 μg/ml), ginsenoside Rh2 (5˜20 μg/ml) or vehicle. Each group contains a final DMSO concentration of 0.1%. Thereafter, the cell numbers were counted by Trypan blue exclusion method. […] The data were expressed as mean±SD; n=3. *, ** and *** indicate a significant difference at the level of p<0.05, p<0.01 and p<0.001, respectively, compared to vehicle-control cells. (One-way ANOVA with Dunnett's multiple comparisons test).

[5] = system: human oral cancer OECM-1 cells; assay: Viability of human oral cancer OECM-1 cells, Trypan blue exclusion; conditions: 5˜20 μg/ml, 24 h
Procedure: as §3, §4

[6] = system: normal human gingival epithelioid cell line SG; assay: Toxicity to normal human gingival epithelioid SG cells, Trypan blue exclusion; conditions: 20 μg/ml, 24 h
Procedure: as §3, with “normal human gingival epithelioid” for “oral cancer”, “SG” for “SAS”, “cells” for “cells (FIG. 1A) or OECM-1 cells (FIG. 1B)”, “n=3.” for “n=3. *,”, “of” for “of p<0.05,”
as §4, with “5×10^5 normal” for “5×10^5”, “gingival epithelioid cell line SG” for “oral cancer cells SAS”, “n=3.” for “n=3. *,”, “of” for “of p<0.05,”

Row | Structure (SMILES) | apoptotic DNA breaks in OECM-1 cells [1] | cells in sub-G1 phase [2] | cells in G1 phase ([2]; vs control cells) | percentage of cells in S and G2/M phase ([2]; vs control cells) | percentage of OECM-1 cells with PI/Annexin V double positive staining [3] | cell numbers of human oral cancer SAS cells [4] | cell numbers of human oral cancer OECM-1 cells [5] | toxicity to SG cells [6]
1 | N.N.[Cl][Pt][Cl] [CDDP, cistaplatin, reference compound] | significantly induced | increased | increased | decreasing | significantly increased | – | – | –
2 | CC(C)=CCC[C@](C)(O)[C@H]1CC[C@]2(C)[C@@H]1[C@H](O)C[C@@H]1[C@@]3(C)CC[C@H](O[C@@H]4O[C@H](CO)[C@@H](O)[C@H](O)[C@H]4O)C(C)(C)[C@@H]3CC[C@]12C [ginsenoside Rh2, reference compound] | – | – | – | – | – | dose-dependently inhibited | dose-dependently inhibited | completely killed the SG cells
